# Experimental data taken from patent publication US11834432B2, “Substituted amino six-membered nitric heterocyclic ring compound and preparation and use thereof” (SHANGHAI INSTITUTE OF MATERIA MEDICA, CHINESE ACADEMY OF …, priority 2016, dated 2023).
# Tests used:
# Format in all cases: biochemical
# IGF1R = IGF1R (Homo sapiens (Human), UniProt P08069); assay: In vitro tyrosine kinase inhibition screening (ELISA); conditions: 1 h
# Method: (§1) 4. In Vitro Screening Test on Tyrosine Kinase Activity Inhibition Screening method: Enzyme-linked immunosorbent assay (ELISA) tyrosine kinase: Enzyme spectrum Time of action: 1 h
# PDGFR-β = PDGFR-β (Homo sapiens (Human), UniProt P09619); assay: as above; conditions: 1 h
# Chain of PDGFR-β (P09619 33-1106): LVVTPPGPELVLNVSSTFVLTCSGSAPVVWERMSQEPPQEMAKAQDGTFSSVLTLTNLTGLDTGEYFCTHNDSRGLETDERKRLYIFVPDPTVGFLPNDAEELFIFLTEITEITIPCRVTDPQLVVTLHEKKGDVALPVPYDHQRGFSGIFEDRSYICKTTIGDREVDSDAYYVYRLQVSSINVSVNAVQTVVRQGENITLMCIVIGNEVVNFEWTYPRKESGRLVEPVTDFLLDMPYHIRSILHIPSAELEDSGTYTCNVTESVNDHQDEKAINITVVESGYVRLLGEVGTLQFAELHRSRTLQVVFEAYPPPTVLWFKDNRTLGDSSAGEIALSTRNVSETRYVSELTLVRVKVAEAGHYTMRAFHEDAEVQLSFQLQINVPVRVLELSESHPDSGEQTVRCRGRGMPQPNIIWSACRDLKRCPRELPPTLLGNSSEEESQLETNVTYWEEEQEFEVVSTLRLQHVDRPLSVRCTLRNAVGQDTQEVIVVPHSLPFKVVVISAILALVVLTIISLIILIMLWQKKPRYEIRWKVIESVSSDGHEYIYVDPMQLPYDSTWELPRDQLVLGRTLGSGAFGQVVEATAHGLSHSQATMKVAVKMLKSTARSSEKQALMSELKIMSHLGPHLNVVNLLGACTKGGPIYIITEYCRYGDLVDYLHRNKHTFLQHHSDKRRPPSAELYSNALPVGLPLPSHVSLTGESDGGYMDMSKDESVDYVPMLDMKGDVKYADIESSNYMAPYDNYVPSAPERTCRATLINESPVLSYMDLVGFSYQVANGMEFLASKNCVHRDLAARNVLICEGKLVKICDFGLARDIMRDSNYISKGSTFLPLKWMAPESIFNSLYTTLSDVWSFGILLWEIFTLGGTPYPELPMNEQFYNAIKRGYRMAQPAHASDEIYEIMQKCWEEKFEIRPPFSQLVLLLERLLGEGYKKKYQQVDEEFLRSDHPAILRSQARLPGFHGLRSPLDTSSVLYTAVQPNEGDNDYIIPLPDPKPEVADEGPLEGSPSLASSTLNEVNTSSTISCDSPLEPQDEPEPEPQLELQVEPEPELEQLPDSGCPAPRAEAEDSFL
# Method: as §1
# [1] = biological target: FGFR1 kinase domain recombinant protein (Homo sapiens (Human), UniProt P11362); assay: Inhibition of receptor tyrosine kinase FGFR1 activity (ELISA)
# Chain of FGFR1 kinase domain recombinant protein (P11362 478-767): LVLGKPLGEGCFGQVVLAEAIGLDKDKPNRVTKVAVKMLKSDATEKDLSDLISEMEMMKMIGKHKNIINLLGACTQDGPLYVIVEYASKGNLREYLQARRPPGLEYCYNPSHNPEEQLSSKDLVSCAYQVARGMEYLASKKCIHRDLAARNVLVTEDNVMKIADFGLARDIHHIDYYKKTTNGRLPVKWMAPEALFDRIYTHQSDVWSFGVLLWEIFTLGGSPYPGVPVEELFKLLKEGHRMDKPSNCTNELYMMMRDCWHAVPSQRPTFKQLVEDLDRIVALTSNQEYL
# Method: 1. Preliminary Evaluation Inhibition on Receptor Tyrosine Kinase FGFR1 Activity of Compound
# 1. […] The liquid from the well was discarded. The plate was washed for three times with T-PBS (0.1% Tween-20 in potassium-free PBS, 200 μL/well), 5 minutes for each time. The elisa plate was dried in 37° C. dryer for 1-2 hours.
# 2. 49 μL of ATP solution diluted in reaction buffer (50 mM HEPES pH 7.4, 50 mM MgCl2, 0.5 mM MnCl2, 0.2 mM Na3VO4, 1 mM DTT) was added into each well, and 1 μL of the test compound was added to each well, and then 50 μL of FGFR1 kinase domain recombinant protein diluted in reaction buffer was added to initiate the reaction, and two control wells without ATP were required for each experiment. The reaction was performed on a Shaker (100 rpm) at 37° C. for 1 hour. The liquid from the well was discarded, and the plate was washed with T-PBS for three times.
# 3. The antibody PY99 dilution (antibody diluted 1:500 in T-PBS with BSA 5 mg/mL) was added at 100 μL/well, and shaken for 0.5 hours on a 37° C. shaker. The liquid from the well was discarded, and the plate was washed with T-PBS for three times.
# 4. The horseradish peroxidase-labeled goat anti-mouse second antibody dilution (antibody diluted 1:2000 in T-PBS with BSA 5 mg/mL) was added at 100 μL/well, and shaken for 0.5 hours on a 37° C. shaker. The liquid from the well was discarded, and the plate was washed with T-PBS for three times.
# 5. 2 mg/mL OPD coloration solution (diluted with 0.1 M citric acid-sodium citrate buffer containing 0.03% H2O2 (pH=5.4)) was added at 100 μL/well, and reacted for 1-10 minutes at 25° C. in darkness.
# 6. The reaction was quenched with 50 μL/well of 2M H2SO4, and the plate was read using a tunable microplate microplate reader VERSAmax at 490 nm.
# The IC50 values were obtained by four-parameter regression analysis using the software supplied with the microplate reader.
# Chain of IGF1R (P08069 31-1367, species assumed): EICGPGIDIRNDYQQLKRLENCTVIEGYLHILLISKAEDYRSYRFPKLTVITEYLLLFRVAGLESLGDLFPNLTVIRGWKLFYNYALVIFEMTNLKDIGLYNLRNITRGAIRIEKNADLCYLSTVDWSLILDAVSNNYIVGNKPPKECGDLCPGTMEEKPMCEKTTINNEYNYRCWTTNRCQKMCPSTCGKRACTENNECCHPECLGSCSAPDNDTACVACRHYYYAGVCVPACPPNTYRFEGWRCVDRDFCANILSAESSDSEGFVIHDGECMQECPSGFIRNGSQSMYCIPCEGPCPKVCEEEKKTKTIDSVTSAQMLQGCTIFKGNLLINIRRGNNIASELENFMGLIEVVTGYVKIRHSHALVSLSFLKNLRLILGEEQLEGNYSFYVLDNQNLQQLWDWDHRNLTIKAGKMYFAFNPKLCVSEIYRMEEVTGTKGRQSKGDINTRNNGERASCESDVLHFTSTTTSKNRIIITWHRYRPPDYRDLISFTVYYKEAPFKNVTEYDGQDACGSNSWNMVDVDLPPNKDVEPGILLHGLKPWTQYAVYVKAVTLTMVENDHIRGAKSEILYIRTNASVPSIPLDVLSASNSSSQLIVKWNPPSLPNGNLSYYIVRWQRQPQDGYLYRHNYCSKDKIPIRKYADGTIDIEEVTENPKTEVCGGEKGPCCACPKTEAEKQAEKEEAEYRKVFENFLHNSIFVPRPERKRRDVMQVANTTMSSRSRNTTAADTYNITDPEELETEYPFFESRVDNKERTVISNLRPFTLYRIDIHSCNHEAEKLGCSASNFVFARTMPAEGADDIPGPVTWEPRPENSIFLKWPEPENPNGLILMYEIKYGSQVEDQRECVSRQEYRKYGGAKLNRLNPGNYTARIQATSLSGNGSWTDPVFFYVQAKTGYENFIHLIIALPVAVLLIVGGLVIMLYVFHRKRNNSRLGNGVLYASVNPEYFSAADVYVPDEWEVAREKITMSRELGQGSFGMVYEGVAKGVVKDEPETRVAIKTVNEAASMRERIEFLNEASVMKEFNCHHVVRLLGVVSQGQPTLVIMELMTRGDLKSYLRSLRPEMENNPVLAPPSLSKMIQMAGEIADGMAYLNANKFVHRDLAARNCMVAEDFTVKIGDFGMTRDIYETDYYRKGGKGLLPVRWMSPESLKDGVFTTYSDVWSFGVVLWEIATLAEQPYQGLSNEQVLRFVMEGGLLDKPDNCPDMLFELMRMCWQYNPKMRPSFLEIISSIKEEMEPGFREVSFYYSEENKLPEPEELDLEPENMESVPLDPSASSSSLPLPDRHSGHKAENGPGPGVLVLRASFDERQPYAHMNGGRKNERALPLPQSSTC
smiles,measurement,setting,value
CNC(=O)c1cccc2cc(Oc3ccnc(NC(=O)c4ccc(N5C[C@@H](C)N[C@@H](C)C5)cc4)c3)ccc12 [Compound S10],Inhibition ratio (%) IGF1R,IGF1R; 10 nM,23.5%
same,Inhibition ratio (%) IGF1R,IGF1R; 1000 nM,11.0%
same,Inhibition ratio (%) PDGFR-β,PDGFR-β; 10 nM,56.4%
same,Inhibition ratio (%) PDGFR-β,PDGFR-β; 1000 nM,87.8%
same,IC50,[1],< 10 nM
same,inhibition at 0.1 µM,"[1]; 1 h, read-out: Inhibition ratio (%) @ 0.1 μM",94%
